One series has as its system allergic conjunctivitis. The settings on record: rats, administered topically into the eyes; cited from earlier work.
Another series relates to M1-M3 receptors. The settings on record: cited from earlier work.
A further series deals with M3 muscarinic receptors (Homo sapiens, UniProt P20309). The settings on record: kinetics studies; cited from earlier work.
For series [1], the system named is LPS-induced TNFα release from human monocytes. In words: LPS-stimulated TNFα release from human monocytes (ELISA). In kind it is cell-based. Here is the method:
The influence of monocompounds and their various combinations, also in three-in-one on TNF secretion was investigated by using human monocytes. The study was approved by our institutional Ethics Committee according to the International Declarations of Helsinki and Tokyo.
Peripheral blood mononuclear cells (PBMCs) were isolated from heparinized blood samples of healthy donors by density gradient centrifugation. An equal volume of Hanks buffer (Invitrogen, Heidelberg, Germany) was added to heparinized whole blood samples. […] A visible band containing PBMCs was transferred to a fresh tube and washed twice with Hanks-buffer. […] 5% CO2 overnight. Monocytes were isolated from other cells by adherence method, non-adherent cells were removed by changing the medium.
Cells were re-suspended at 10^6 cells/ml and incubated in 500 μl volumes in 24-well tissue culture plates (Falcon Becton Dickinson Labware, Heidelberg, Germany) at 37° C., 5% CO2. After pre-incubation with test substances (0.5 μl/500 μl medium) for 30 min, cells were stimulated with lipopolysaccharide (LPS) (Sigma, Deisenhofen, Germany) (1 μg/ml). After 24 h of incubation, cells were sedimented by centrifugation. The supernatants were harvested and kept frozen at −80° C. until protein determination.
Cytokine measurements in culture supernatants were done by sandwich ELISA using matched antibody pairs (BD Pharmingen, Heidelberg, Germany). ELISA plates (Maxisorb, Nunc, Wiesbaden, Germany) were coated overnight with anti-cytokine monoclonal antibody (mAb) in 0.1M carbonate buffer, pH 9.5. After being washed, plates were blocked with Assay Diluent (BD Pharmingen, Heidelberg, Germany) for 1 h and washed again. Appropriately diluted supernatant samples and standards were distributed in duplicates and the plates were incubated for 2 h at room temperature. Plates were washed, incubated for 1 h with working detector (biotinylated anti-cytokine antibody and Avidin-horseradish peroxidase conjugate) (BD Pharmingen, Heidelberg, Germany). After washing, substrate (TMB and hydrogen peroxide) was added. The reaction was stopped by adding of 1M H3PO4. Plates were read at 450 nm (reference 570 nm) in a microplate reader (Dynatech, Alexandria, USA). The results were expressed as a percentage of the control level of cytokines production by cells stimulated in the absence of the compound.
Background: An ELISA detects its analyte on a solid surface through an enzyme-linked reagent.

For series [2] the following is noted: dog, in vivo, 15 mg/kg; cited from earlier work.
Series [3] deals with allergen-induced airway eosinophilia. The settings on record: Brown Norway rats; administered directly into the lungs; cited from earlier work.
Series [4] relates to collagen-induced arthritis. The settings on record: rats; cited from earlier work.
The conditions of series [5]: mice; cited from earlier work.
For series [6] the following is noted: animal experiments; completely reversed by adding scopolamine; cited from earlier work.

Sequence of M3 muscarinic receptors (P20309 whole entry): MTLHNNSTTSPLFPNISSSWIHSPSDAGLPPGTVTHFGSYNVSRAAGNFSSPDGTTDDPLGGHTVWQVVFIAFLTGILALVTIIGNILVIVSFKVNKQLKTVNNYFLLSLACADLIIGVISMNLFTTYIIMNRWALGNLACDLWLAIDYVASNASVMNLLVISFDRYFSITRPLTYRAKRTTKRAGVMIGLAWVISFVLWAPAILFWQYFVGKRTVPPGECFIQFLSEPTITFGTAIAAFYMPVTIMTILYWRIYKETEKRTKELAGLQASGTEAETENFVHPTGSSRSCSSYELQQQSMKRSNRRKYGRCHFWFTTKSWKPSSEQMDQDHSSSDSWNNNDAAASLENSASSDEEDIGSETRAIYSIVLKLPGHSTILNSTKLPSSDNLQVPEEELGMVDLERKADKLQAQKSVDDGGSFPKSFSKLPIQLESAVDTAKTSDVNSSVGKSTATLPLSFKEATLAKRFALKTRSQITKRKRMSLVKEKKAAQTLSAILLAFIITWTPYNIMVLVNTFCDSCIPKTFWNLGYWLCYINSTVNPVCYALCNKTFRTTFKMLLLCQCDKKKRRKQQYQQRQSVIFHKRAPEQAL

As to `COc1cc(C(=O)NS(=O)(=O)c2ccccc2C)ccc1Cc1cn(C)c2ccc(NC(=O)OC3CCCC3)cc12` [Zafirlukast, zafirlukast], the “development of symptoms and mediator release” value in the series with allergic conjunctivitis is “effectively inhibit”.

For the compound `C[N+]1(C)CCC(OC(=O)C(O)(c2ccccc2)C2CCCC2)C1` (racemic) [glycopyrrolate, racemic glycopyrrolate], the “selectivity in binding to the M1-M3 receptors” value in the series on M1-M3 receptors is on record as “no selectivity”. Moreover, the “dissociation from M3 muscarinic receptors” value at M3 muscarinic receptors was “dissociates slowly”. Regarding `C[N+]1(C)CC[C@@H](OC(=O)[C@](O)(c2ccccc2)C2CCCC2)C1.[Br-]` [R,R-glycopyrrolate], the “influence of the single substance on LPS-induced TNFα release” value in series [1] (human monocytes, LPS 1 μg/ml, 24 h, concentrations up to 10 μM) was “did not influence”. On to `O=C(Nc1c(Cl)cncc1Cl)C(=O)c1cn(Cc2ccc(F)cc2)c2ccc(O)cc12` [AWD 12-281], for which, in series [2], the emesis result was “no emesis could be induced”. For the same compound, the “ID50 for suppression of allergen-induced airway eosinophilia” value in series [3] is 7 µg/kg. As for `CCCC1O[C@@H]2C[C@H]3[C@@H]4CCC5=CC(=O)C=C[C@]5(C)[C@H]4[C@@H](O)C[C@]3(C)[C@]2(C(=O)CO)O1` (stereo partly shown) [budesonide], the concentration for half-maximal inhibition (IC50) in series [1] (Monocyte, human monocytes, LPS 1 μg/ml, 24 h, read-out: IC50 for inhibition of TNFα release) worked out at 550 ± 130 pM.

Turning to `C[C@H]1C[C@H]2[C@@H]3CCC4=CC(=O)C=C[C@]4(C)[C@@]3(Cl)[C@@H](O)C[C@]2(C)[C@@]1(O)C(=O)CO` [beclomethasone], the “ID50 for suppression of allergen-induced airway eosinophilia” value in series [3] was 0.1 µg/kg. For the compound `COc1ccc(C2CNC(=O)C2)cc1OC1CCCC1` (stereo not shown) [rolipram], the “clinical and histological severity of collagen-induced arthritis” value in series [4] was “reduced the clinical and histological severity”. The “physiological bone formation and bone mass” value in [5] was “enhance physiological bone formation and thereby increase bone mass”. Moreover, the “sedative effects (hypoactivity, decreased locomotion)” value in series [6] is listed as “induces sedative effects”. In addition, in series [1] (IC35 determined instead of IC50 because maximum inhibition was around 70%), the “IC35 for inhibition of TNFα release” value turned out to be 68900 ± 15200 pM. For the same compound, the “maximum inhibition of TNFα release” value in series [1] (human monocytes, LPS 1 μg/ml, 24 h) is recorded as “around 70%”.

The term IC50 denotes the midpoint of a concentration-inhibition curve.

Source of the values: patent US8048910B2, “Combination of R,R-glycopyrrolate, rolipram, and budesonide for the treatment of inflammatory diseases” (Meda Pharma GmbH & Co. KG, priority 2005, dated 2011).
